Data taken from publication PMC3265452 (PLoS Neglected Tropical Diseases, 2012).
Where a name gives a salt, the structure may show the parent alone.

What follows are compounds tested against AaDOP2 (Aedes aegypti, UniProt H6D5H2) (assay: AaDOP2 antagonist screen of the LOPAC1280 library (HEK-CRELuc-Aadop2 cells, luminescence)). Conditions: not given.
Chain of AaDOP2 (H6D5H2 1-476): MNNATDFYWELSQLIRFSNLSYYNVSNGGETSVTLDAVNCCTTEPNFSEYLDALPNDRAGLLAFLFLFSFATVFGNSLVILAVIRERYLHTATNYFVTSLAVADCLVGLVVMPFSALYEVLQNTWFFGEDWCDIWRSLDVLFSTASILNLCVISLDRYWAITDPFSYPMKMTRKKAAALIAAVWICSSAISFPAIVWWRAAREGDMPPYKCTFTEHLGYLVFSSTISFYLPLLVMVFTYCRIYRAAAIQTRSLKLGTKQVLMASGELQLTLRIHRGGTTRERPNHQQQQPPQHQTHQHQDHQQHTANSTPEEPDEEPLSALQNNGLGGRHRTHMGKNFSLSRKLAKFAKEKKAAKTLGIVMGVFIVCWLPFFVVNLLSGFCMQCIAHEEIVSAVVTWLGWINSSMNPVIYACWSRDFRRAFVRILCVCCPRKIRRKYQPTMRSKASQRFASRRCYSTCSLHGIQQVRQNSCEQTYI
Format: cell-based
`C=C(C)[C@H]1CN[C@H](C(=O)O)[C@H]1CC(=O)O` [Compound 682, Kainic acid] was tested, and the “Compound effect (percent receptor signaling in presence of test compound, relative lux units relative to the SCH23390 control)” value was 98. `CC(=O)N1CCN(c2ccc(OCC3COC(Cn4ccnc4)(c4ccc(Cl)cc4Cl)O3)cc2)CC1` (centres unmarked) [Compound 683, Ketoconazole] was tested, and the “Compound effect (percent receptor signaling in presence of test compound, relative lux units relative to the SCH23390 control)” value was 85. `CC(C(=O)O)c1cccc(C(=O)c2ccccc2)c1` (centres unmarked) [Compound 685, Ketoprofen] was tested, and the “Compound effect (percent receptor signaling in presence of test compound, relative lux units relative to the SCH23390 control)” value was 101. For `CCCC(=O)NCCc1c2n(c3ccc(OC)cc13)CCCc1ccccc1-2` [Compound 686, K 185], the “Compound effect (percent receptor signaling in presence of test compound, relative lux units relative to the SCH23390 control)” value was 80. `CN1CCC(=C2c3ccccc3CC(=O)c3sccc32)CC1` [Compound 687, Ketotifen fumarate] was tested, and the “Compound effect (percent receptor signaling in presence of test compound, relative lux units relative to the SCH23390 control)” value was 4. With `O=C(O)c1cc(=O)c2ccccc2[nH]1` [Compound 688, Kynurenic acid] the “Compound effect (percent receptor signaling in presence of test compound, relative lux units relative to the SCH23390 control)” value was 99. With `O=C1Cc2c([nH]c3ccc(Br)cc23)-c2ccccc2N1` [Compound 689, Kenpaullone] the “Compound effect (percent receptor signaling in presence of test compound, relative lux units relative to the SCH23390 control)” value was 17. In the case of `CCN1C[C@]2(C)CC[C@H](O)[C@]34C1[C@@H](C[C@H]23)[C@@]1(O)C[C@H](OC)[C@H]2C[C@@H]4[C@@H]1[C@H]2O` [Compound 690, Karakoline], the “Compound effect (percent receptor signaling in presence of test compound, relative lux units relative to the SCH23390 control)” value is reported as 101. `O=c1[nH]c2cc(Cl)ccc2c(O)c1-c1cccc(Oc2ccccc2)c1` [Compound 691, L-701,324] was tested, and the “Compound effect (percent receptor signaling in presence of test compound, relative lux units relative to the SCH23390 control)” value was 90. For `CC(C(=O)O)c1ccc(CC2CCCC2=O)cc1` (centres unmarked) [Compound 692, loxoprofen], the “Compound effect (percent receptor signaling in presence of test compound, relative lux units relative to the SCH23390 control)” value was 92. In the case of `CC(CCc1ccccc1)NCC(O)c1ccc(O)c(C(N)=O)c1` (centres unmarked) [Compound 693, Labetalol hydrochloride], the “Compound effect (percent receptor signaling in presence of test compound, relative lux units relative to the SCH23390 control)” value is reported as 83. `CCCCOC(=O)NS(=O)(=O)c1sc(CC(C)C)cc1-c1ccc(Cn2c(CC)nc3c(C)cc(C)nc32)cc1` [Compound 694, L-162,313] was tested, and the “Compound effect (percent receptor signaling in presence of test compound, relative lux units relative to the SCH23390 control)” value was 99. For `CC[N+](C)(CC)CC(=O)Nc1c(C)cccc1C.[Cl-]` [Compound 695, Lidocaine N-methyl hydrochloride], the “Compound effect (percent receptor signaling in presence of test compound, relative lux units relative to the SCH23390 control)” value was 92. For `CC1(C)CCC2=C(O1)c1ccccc1C(=O)C2=O` [Compound 696, beta-Lapachone], the “Compound effect (percent receptor signaling in presence of test compound, relative lux units relative to the SCH23390 control)” value was 14. For `O=S1(=O)N(CCN2CC=C(c3c[nH]c4cc(F)ccc34)CC2)c2cccc3c2N1CCC3` [Compound 697, LY-367,265], the “Compound effect (percent receptor signaling in presence of test compound, relative lux units relative to the SCH23390 control)” value was 29. In the case of `Cc1ccccc1N1CCN(S(=O)(=O)C[C@]23CC[C@H](C[C@@H]2NC(=O)[C@@H](N)CCS(C)(=O)=O)C3(C)C)CC1` [Compound 699, L-368,899], the “Compound effect (percent receptor signaling in presence of test compound, relative lux units relative to the SCH23390 control)” value is reported as 94. In the case of `CCn1cc(C(=O)O)c(=O)c2cc(F)c(N3CCNC(C)C3)c(F)c21` (centres unmarked) [Compound 700, Lomefloxacin hydrochloride], the “Compound effect (percent receptor signaling in presence of test compound, relative lux units relative to the SCH23390 control)” value is reported as 90. `Nc1nnc(-c2cccc(Cl)c2Cl)c(N)n1` [Compound 701, Lamotrigine] was tested, and the “Compound effect (percent receptor signaling in presence of test compound, relative lux units relative to the SCH23390 control)” value was 87. With `CN1[C@@H](CC(=O)c2ccccc2)CCC[C@H]1C[C@H](O)c1ccccc1.Cl` [Compound 702, alpha-Lobeline hydrochloride] the “Compound effect (percent receptor signaling in presence of test compound, relative lux units relative to the SCH23390 control)” value was 89. For `CN(C)C(=O)C(CCN1CCC(O)(c2ccc(Cl)cc2)CC1)(c1ccccc1)c1ccccc1` [Compound 703, Loperamide hydrochloride], the “Compound effect (percent receptor signaling in presence of test compound, relative lux units relative to the SCH23390 control)” value was 83. For `O=C(O)c1nn(Cc2ccc(Cl)cc2Cl)c2ccccc12` [Compound 704, Lonidamine], the “Compound effect (percent receptor signaling in presence of test compound, relative lux units relative to the SCH23390 control)” value was 90. With `Cc1oncc1C(=O)Nc1ccc(C(F)(F)F)cc1` [Compound 705, Leflunomide] the “Compound effect (percent receptor signaling in presence of test compound, relative lux units relative to the SCH23390 control)” value was 97. `CN1CCc2ccccc2Cc2[nH]c3ccccc3c2CC1` [Compound 710, LE 300] was tested, and the “% of the SCH23390 effect (percent inhibition of receptor response relative to the SCH23390 control)” value was 99% and the “Compound effect (percent receptor signaling in presence of test compound, relative lux units relative to the SCH23390 control)” value was 1. `Cc1c(OCC(F)(F)F)ccnc1C[S+]([O-])c1nc2ccccc2[nH]1` (centres unmarked) [Compound 711, Lansoprazole] was tested, and the “Compound effect (percent receptor signaling in presence of test compound, relative lux units relative to the SCH23390 control)” value was 91. With `Cl.c1ccc(CN2CCC3(CCCc4ccccc43)CC2)cc1` [Compound 712, L-687,384 hydrochloride] the “Compound effect (percent receptor signaling in presence of test compound, relative lux units relative to the SCH23390 control)” value was 87. `C/C(O)=C(\C#N)C(=O)Nc1cc(Br)ccc1Br` [Compound 713, LFM-A13] was tested, and the “Compound effect (percent receptor signaling in presence of test compound, relative lux units relative to the SCH23390 control)” value was 98. In the case of `O=c1cc(-c2ccc(O)c(O)c2)oc2cc(O)cc(O)c12` [Compound 714, Luteolin], the “Compound effect (percent receptor signaling in presence of test compound, relative lux units relative to the SCH23390 control)” value is reported as 87. In the case of `Cc1c(CC(C)(C)C(=O)O)n(Cc2ccc(Cl)cc2)c2ccc(F)cc12` [Compound 715, L-655,240], the “Compound effect (percent receptor signaling in presence of test compound, relative lux units relative to the SCH23390 control)” value is reported as 73. For `CCOC(=O)N1CCC(=C2c3ccc(Cl)cc3CCc3cccnc32)CC1` [Compound 716, Loratadine], the “Compound effect (percent receptor signaling in presence of test compound, relative lux units relative to the SCH23390 control)” value was 88. With `Cl.c1ccc([C@H]2CN3CCSC3=N2)cc1` [Compound 717, (-)-Tetramisole hydrochloride] the “Compound effect (percent receptor signaling in presence of test compound, relative lux units relative to the SCH23390 control)” value was 90. `CCOC(=O)c1ncn2c1[C@@H]1CCCN1C(=O)c1cc(OC)ccc1-2` [Compound 718, L-655,708] was tested, and the “Compound effect (percent receptor signaling in presence of test compound, relative lux units relative to the SCH23390 control)” value was 90. With `Cl.O=c1cc(N2CCOCC2)oc2c(-c3ccccc3)cccc12` [Compound 719, LY-294,002 hydrochloride] the “Compound effect (percent receptor signaling in presence of test compound, relative lux units relative to the SCH23390 control)” value was 53. In the case of `CN1CCN(C2=Nc3ccccc3Oc3ccc(Cl)cc32)CC1` [Compound 720, Loxapine succinate], the “Compound effect (percent receptor signaling in presence of test compound, relative lux units relative to the SCH23390 control)” value is reported as 3. `CCCCCN(CCCCC)C(=O)C(CCC(=O)O)NC(=O)c1ccc(Cl)c(Cl)c1` (centres unmarked) [Compound 722, Lorglumide sodium] was tested, and the “Compound effect (percent receptor signaling in presence of test compound, relative lux units relative to the SCH23390 control)” value was 122. In the case of `Ic1ccccc1CNC1C2CCN(CC2)C1C(c1ccccc1)c1ccccc1.O=C(O)C(=O)O` [Compound 725, L-703,606 oxalate], the “Compound effect (percent receptor signaling in presence of test compound, relative lux units relative to the SCH23390 control)” value is reported as 98. In the case of `C=CCN1CC[C@]23CCCC[C@H]2[C@H]1Cc1ccc(O)cc13` [Compound 726, Levallorphan tartrate], the “Compound effect (percent receptor signaling in presence of test compound, relative lux units relative to the SCH23390 control)” value is reported as 93. For `Cl.Clc1ccc(N2CCN(Cc3c[nH]c4ncccc34)CC2)cc1` [Compound 728, L-745,870 hydrochloride], the “Compound effect (percent receptor signaling in presence of test compound, relative lux units relative to the SCH23390 control)” value was 111. For `O=C1N(c2ccccc2)c2ccccc2C1(Cc1ccncc1)Cc1ccncc1` [Compound 730, Linopirdine], the “Compound effect (percent receptor signaling in presence of test compound, relative lux units relative to the SCH23390 control)” value was 106. In the case of `OC1(c2ccc(Cl)cc2)CCN(Cc2c[nH]c3ccccc23)CC1` [Compound 731, L-741,626], the “Compound effect (percent receptor signaling in presence of test compound, relative lux units relative to the SCH23390 control)” value is reported as 104. `COc1cc(CNC(=O)CCCCCCC(C)C)ccc1O` [Compound 735, Dihydrocapsaicin] was tested, and the “Compound effect (percent receptor signaling in presence of test compound, relative lux units relative to the SCH23390 control)” value was 102.

Same assay, conditions: 10 µM compound, 300 nM dopamine, 2 hr
`CC1(C)C(=O)N(CCN2CCC(C(=O)c3ccc(F)cc3)CC2)c2ccccc21.Cl` [Compound 698, LY-310,762 hydrochloride] was tested, and the “% of the SCH23390 effect (percent inhibition of receptor response relative to the SCH23390 control)” value was 81%.

Same assay, conditions: 10 µM compound, 300 nM dopamine, 2 hr; hit = compound effect <20
With `NC(CO)(CO)CO.O=C(c1ccccc1)c1ccc2n1CCC2C(=O)O` (centres unmarked) [Compound 684, Ketorolac tris salt] the “Compound effect (percent receptor signaling in presence of test compound, relative lux units relative to the SCH23390 control)” value was 98%. `CC1(C)C(=O)N(CCN2CCC(C(=O)c3ccc(F)cc3)CC2)c2ccccc21.Cl` [Compound 698, LY-310,762 hydrochloride] was tested, and the “Compound effect (percent receptor signaling in presence of test compound, relative lux units relative to the SCH23390 control)” value was 19%. `CC(O)C(C)OC(=O)[C@@H]1C[C@@H]2c3cccc4c3c(cn4C(C)C)C[C@H]2N(C)C1.O=C(O)/C=C\C(=O)O` (some centres unmarked) [Compound 721, LY-53,857 maleate] was tested, and the “Compound effect (percent receptor signaling in presence of test compound, relative lux units relative to the SCH23390 control)” value was 73%. In the case of `CN1C2CCC1CC(NC(=O)c1nn(C)c3ccccc13)C2.O=C(O)/C=C\C(=O)O` (centres unmarked) [Compound 723, LY-278,584 maleate], the “Compound effect (percent receptor signaling in presence of test compound, relative lux units relative to the SCH23390 control)” value is reported as 92%. In the case of `Cl.Cl.Cl.Ic1ccc(N2CCN(Cc3c[nH]c4ncccc34)CC2)cc1` [Compound 729, L-750,667 trihydrochloride], the “Compound effect (percent receptor signaling in presence of test compound, relative lux units relative to the SCH23390 control)” value is reported as 107%. `Cl.FC(F)(F)c1cc(CO[C@H]2CCCN[C@H]2c2ccccc2)cc(C(F)(F)F)c1` [Compound 732, L-733,060 hydrochloride] was tested, and the “Compound effect (percent receptor signaling in presence of test compound, relative lux units relative to the SCH23390 control)” value was 94%. For `CCN(CC)CCNC(=O)c1cc(Cl)c(N)cc1OC.Cl` [Compound 733, Metoclopramide hydrochloride], the “Compound effect (percent receptor signaling in presence of test compound, relative lux units relative to the SCH23390 control)” value was 101%.

Same assay, conditions: read-out: % of the SCH23390 effect (percent inhibition of receptor response relative to the SCH23390 control)
In the case of `CN1CCC(=C2c3ccccc3CC(=O)c3sccc32)CC1` [Compound 687, Ketotifen fumarate], the inhibition at 10 µM is reported as 96%. `O=C1Cc2c([nH]c3ccc(Br)cc23)-c2ccccc2N1` [Compound 689, Kenpaullone] showed an inhibition at 10 µM of 83%. `CC1(C)CCC2=C(O1)c1ccccc1C(=O)C2=O` [Compound 696, beta-Lapachone] showed an inhibition at 10 µM of 86%. Work on `CN1CCN(C2=Nc3ccccc3Oc3ccc(Cl)cc32)CC1` [Compound 720, Loxapine succinate] yielded an inhibition at 10 µM of 97%.
